Source: US20240270821A1, “GIP/GLP1/GCG TRI-RECEPTOR AGONISTS AND USES THEREOF” (priority 2023, published 2024)
Like-named read-outs stand apart in the source and are kept apart here. Starred links: 1 amine or outer side, 2 acyl side, 3 side chain; linkers in the order of their positions; H or OH if unused. Non-standard residues stand in square brackets, D forms with d. Groups on a side chain read outwards from the residue. *: point of attachment. C18 diacid = O=C(O)CCCCCCCCCCCCCCCCC(=O)*; αMePhe(2-F) = C[C@](N)(Cc1ccccc1F)C(=O)O; γGlu = O=C(O)[C@H](CCC(=O)[*:2])N[*:1]; αMe4Pal = C[C@](N)(Cc1ccncc1)C(=O)O; αMeY = C[C@](N)(Cc1ccc(O)cc1)C(=O)O; 4Pal = N[C@@H](Cc1ccncc1)C(=O)O; αMeL = CC(C)C[C@](C)(N)C(=O)O; αMeS = C[C@](N)(CO)C(=O)O; Orn = NCCC[C@H](N)C(=O)O; AEEA = NCCOCCOCC(=O)O; Aib = CC(C)(N)C(=O)O

Legend:
Type in all cases: cell-based
hGLP-1R [1] = target: T1, hGLP-1R (Homo sapiens, UniProt P43220); test: Functional cAMP activation in the presence of 0.1% casein (no HSA); details: read-out: Relative cAMP EC50, hGLP-1R;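 further: intracellular cAMP rise after 30 min at 37 °C read by HTRF, normalized between buffer only (0%) and maximal control ligand (100%), four-parameter variable-slope fit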
hGIPR [2] = target: T2, hGIPR (Homo sapiens, UniProt P48546); test: as above; details: read-out: Relative cAMP EC50, hGIPR;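 further: intracellular cAMP rise after 30 min at 37 °C read by HTRF against a standard curve, scaled between buffer alone (0%) and top control ligand concentration (100%), four-parameter fit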
T2 sequence (P48546 22-466): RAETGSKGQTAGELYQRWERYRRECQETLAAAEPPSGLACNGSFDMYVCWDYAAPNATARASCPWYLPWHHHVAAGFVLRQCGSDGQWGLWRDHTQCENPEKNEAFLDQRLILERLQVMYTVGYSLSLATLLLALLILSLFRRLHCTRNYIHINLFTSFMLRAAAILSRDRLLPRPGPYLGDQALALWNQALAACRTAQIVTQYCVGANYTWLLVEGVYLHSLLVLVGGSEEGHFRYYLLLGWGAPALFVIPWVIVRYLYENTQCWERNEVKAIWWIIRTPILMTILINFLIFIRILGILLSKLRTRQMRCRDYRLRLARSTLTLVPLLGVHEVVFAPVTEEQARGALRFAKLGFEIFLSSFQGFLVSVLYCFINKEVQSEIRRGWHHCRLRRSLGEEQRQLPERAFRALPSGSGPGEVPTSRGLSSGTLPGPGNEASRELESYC

hGcgR = hGcgR (Homo sapiens, UniProt P47871); test: as above; details: read-out: Relative cAMP EC50, hGcgR;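 further: intracellular cAMP rise after 30 min at 37 °C, read by HTRF against a cAMP standard curve, scaled from buffer only (0%) to maximal control ligand response (100%)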
hGLP-1R [3] = target: T1, hGLP-1R; test: Functional cAMP activity in the presence of 1% HSA; details: read-out: cAMP Rel EC50, hGLP-1R
human GcgR = human GcgR (Homo sapiens, UniProt P47871); test: Functional cAMP activity in the presence of 1% HSA; details: read-out: cAMP Rel EC50, hGcgR
hGIPR [4] = target: T2, hGIPR; test: Functional cAMP activity in the presence of 1% HSA; details: read-out: cAMP Rel EC50, hGIPR
[5] = 0.1% casein, no HSA, geometric mean
[6] = in the presence of 0.1% casein (no HSA), geometric mean of relative EC50
[7] = HEK-293 clonal cell line, 1% HSA, geometric mean of relative EC50

T1 sequence (P43220 24-463): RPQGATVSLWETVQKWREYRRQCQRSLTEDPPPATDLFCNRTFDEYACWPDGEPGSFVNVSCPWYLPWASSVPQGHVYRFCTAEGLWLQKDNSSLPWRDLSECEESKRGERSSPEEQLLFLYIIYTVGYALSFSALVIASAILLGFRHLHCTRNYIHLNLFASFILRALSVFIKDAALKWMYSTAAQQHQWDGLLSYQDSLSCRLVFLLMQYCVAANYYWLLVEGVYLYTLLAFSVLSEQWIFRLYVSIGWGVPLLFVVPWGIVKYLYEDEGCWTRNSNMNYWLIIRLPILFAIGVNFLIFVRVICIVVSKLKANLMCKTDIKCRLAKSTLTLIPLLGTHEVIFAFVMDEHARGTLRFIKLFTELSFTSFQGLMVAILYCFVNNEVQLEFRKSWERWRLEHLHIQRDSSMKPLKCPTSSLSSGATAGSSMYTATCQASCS
Sequence of hGcgR (P47871 26-477): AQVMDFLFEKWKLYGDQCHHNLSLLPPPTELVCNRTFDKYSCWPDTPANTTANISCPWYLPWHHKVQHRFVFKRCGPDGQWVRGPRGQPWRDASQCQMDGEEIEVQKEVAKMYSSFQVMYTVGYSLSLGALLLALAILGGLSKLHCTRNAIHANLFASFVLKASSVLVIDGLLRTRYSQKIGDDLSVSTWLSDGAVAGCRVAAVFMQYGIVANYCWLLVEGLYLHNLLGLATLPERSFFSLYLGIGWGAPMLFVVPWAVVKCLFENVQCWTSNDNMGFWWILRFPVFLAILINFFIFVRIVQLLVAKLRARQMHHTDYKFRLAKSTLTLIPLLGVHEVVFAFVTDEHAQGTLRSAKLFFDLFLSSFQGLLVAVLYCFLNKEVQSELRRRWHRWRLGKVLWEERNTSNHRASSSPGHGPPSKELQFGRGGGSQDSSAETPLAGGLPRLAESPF
Sequence of human GcgR (P47871 26-477): as above

Substance	EC50 (hGLP-1R [1])	EC50 (hGIPR [2])	EC50 (hGcgR)	EC50 (hGLP-1R [3])	EC50 (human GcgR)	EC50 (hGIPR [4])	EC50 (hGLP-1R [1]; [5])	EC50 (hGIPR [2]; [5])	EC50 (hGcgR; [5])	EC50 (hGLP-1R [1]; [6])	EC50 (hGIPR [2]; [6])	EC50 (hGcgR; [6])	EC50 (hGLP-1R [3]; [7])	EC50 (human GcgR; [7])	EC50 (hGIPR [4]; [7])
H-Y[Aib]QGT[αMePhe(2-F)]TSD[4Pal][αMeS]ILLD[Orn]K([γGlu-γGlu-C18 diacid])AQ[Aib][Orn]FI[dE]YLIEGGPSSGEPPPSGTE-NH2 [Example 531]	0.356 nM	0.0694 nM	3.79 nM	37.8 nM	465 nM	5.2 nM									
H-Y[Aib]QGT[αMePhe(2-F)]TSD[4Pal][αMeS]ILLD[Orn]K([γGlu-γGlu-C18 diacid])AQ[Aib][Orn]FI[dE]YLIEGGPSSGEPPPSGTEE-NH2 [Example 576]	0.528 nM	0.0723 nM	6.37 nM	56.8 nM	646 nM	8.12 nM									
H-Y[Aib]QGT[αMePhe(2-F)]TSD[4Pal][αMeS]ILLD[Orn]K([γGlu-γGlu-C18 diacid])AQ[Aib][Orn]FI[dE][αMeY]LQEGGPSSGEPPPEGAEE-NH2 [Example 574]	0.499 nM	0.235 nM	5.04 nM	37.2 nM	435 nM	20.5 nM									
H-Y[Aib]QGT[αMePhe(2-F)]TSD[4Pal][αMeS]ILLD[Orn]K([γGlu-γGlu-C18 diacid])AQ[Aib][Orn]FI[dE][αMeY]LQEGGPSSGEPPPSGAE-NH2 [Example 547]	0.337 nM	0.152 nM	3.8 nM	27.7 nM	237 nM	7.26 nM									
H-Y[Aib]QGT[αMePhe(2-F)]TSD[4Pal][αMeS]ILLD[Orn]K([γGlu-γGlu-C18 diacid])AQ[Aib][Orn]FI[dE][αMeY]LQEGGPSSGEPPPSGAEE-NH2 [Example 575]	0.438 nM	0.321 nM	3.69 nM	37.1 nM	484 nM	16.2 nM									
H-Y[Aib]QGT[αMePhe(2-F)]TSD[4Pal][αMeS]I[αMeL]LD[Orn]K([AEEA-AEEA-γGlu-C18 diacid])AQ[Aib][Orn]FIEYLIEGGPSSGAPEPSEG-NH2 [Example 492]	0.146 nM	0.0119 nM	1.35 nM	9.85 nM	128 nM	0.84 nM									
H-Y[Aib]QGT[αMePhe(2-F)]TSD[4Pal][αMeS]I[αMeL]LD[Orn]K([AEEA-AEEA-γGlu-C18 diacid])AQ[Aib][Orn]FIEYLIEGGPSSGEPPPSEG-NH2 [Example 491]	0.17 nM	0.0126 nM	1.58 nM	9.55 nM	159 nM	0.688 nM									
H-Y[Aib]QGT[αMePhe(2-F)]TSD[4Pal][αMeS]I[αMeL]LD[Orn]K([AEEA-AEEA-γGlu-C18 diacid])AQ[αMe4Pal]EFI[dE][αMeY]LIEGGPSSGEPPPSGS-NH2 [Example 1208]				44.8 nM	451 nM	0.786 nM	0.526 nM	0.00907 nM	3.52 nM						
H-Y[Aib]QGT[αMePhe(2-F)]TSD[4Pal][αMeS]I[αMeL]LD[Orn]K([AEEA-γGlu-C18 diacid])AA[Aib]EFI[dE][αMeY]LIEGGPSSGAPPPSGEE-NH2 [Example 703]										0.233 nM	0.0101 nM	1.56 nM	27.1 nM	201 nM	0.961 nM
H-Y[Aib]QGT[αMePhe(2-F)]TSD[4Pal][αMeS]I[αMeL]LD[Orn]K([AEEA-γGlu-C18 diacid])AA[Aib]EFI[dE][αMeY]LIEGGPSSGAPPPSGQ-OH [Example 722]	0.252 nM	0.01 nM	1.71 nM	27.2 nM	170 nM	0.953 nM									
H-Y[Aib]QGT[αMePhe(2-F)]TSD[4Pal][αMeS]I[αMeL]LD[Orn]K([AEEA-γGlu-C18 diacid])AA[Aib]EFI[dE][αMeY]LIEGGPSSGAPPPSGTEE-NH2 [Example 725]	0.258 nM	0.0126 nM	1.49 nM	29.1 nM	244 nM	1.39 nM									
H-Y[Aib]QGT[αMePhe(2-F)]TSD[4Pal][αMeS]I[αMeL]LD[Orn]K([AEEA-γGlu-C18 diacid])AA[Aib]EFI[dE][αMeY]LIEGGPSSGAPPPSGTEQ-OH [Example 726]	0.247 nM	0.013 nM	1.71 nM	33.3 nM	226 nM	1.22 nM									
H-Y[Aib]QGT[αMePhe(2-F)]TSD[4Pal][αMeS]I[αMeL]LD[Orn]K([AEEA-γGlu-C18 diacid])AA[Aib]EFI[dE][αMeY]LIEGGPSSGAPPPSGTGQ-OH [Example 724]	0.256 nM	0.0102 nM	1.74 nM	26.4 nM	209 nM	1.06 nM									
H-Y[Aib]QGT[αMePhe(2-F)]TSD[4Pal][αMeS]I[αMeL]LD[Orn]K([AEEA-γGlu-C18 diacid])AA[Aib]EFI[dE][αMeY]LIEGGPSSGAPPPSG[dE]-NH2 [Example 721]	0.233 nM	0.00774 nM	1.78 nM	27.1 nM	183 nM	1.19 nM									
H-Y[Aib]QGT[αMePhe(2-F)]TSD[4Pal][αMeS]I[αMeL]LD[Orn]K([AEEA-γGlu-C18 diacid])AA[Aib]EFI[dE][αMeY]LIEGGPSSGEPPPSGGGE-NH2 [Example 746]	0.261 nM	0.0119 nM	1.62 nM	38.6 nM	255 nM	1.44 nM									
H-Y[Aib]QGT[αMePhe(2-F)]TSD[4Pal][αMeS]I[αMeL]LD[Orn]K([AEEA-γGlu-C18 diacid])AA[Aib]EFI[dE][αMeY]LLEGGPSSGAPPPSGS-NH2 [Example 672]	0.389 nM	0.014 nM	1.19 nM	49.4 nM	162 nM	1.53 nM									
H-Y[Aib]QGT[αMePhe(2-F)]TSD[4Pal][αMeS]I[αMeL]LD[Orn]K([AEEA-γGlu-C18 diacid])AA[Aib]EFI[dE][αMeY]LVEGGPSSGAPPPSGS-NH2 [Example 693]	0.161 nM	0.0104 nM	2.39 nM	18 nM	304 nM	1.1 nM									
H-Y[Aib]QGT[αMePhe(2-F)]TSD[4Pal][αMeS]I[αMeL]LD[Orn]K([AEEA-γGlu-C18 diacid])AQ[Aib]NFIEYLIEGGPSSGEPPPEEG-NH2 [Example 482]	0.177 nM	0.0139 nM	1.41 nM	14.9 nM	325 nM	1.58 nM									
H-Y[Aib]QGT[αMePhe(2-F)]TSD[4Pal][αMeS]I[αMeL]LD[Orn]K([AEEA-γGlu-C18 diacid])AQ[Aib]NFIEYLIEGGPSSGEPPPEGE-NH2 [Example 483]	0.188 nM	0.0133 nM	1.77 nM	18.2 nM	231 nM	1.17 nM									
H-Y[Aib]QGT[αMePhe(2-F)]TSD[4Pal][αMeS]I[αMeL]LD[Orn]K([AEEA-γGlu-C18 diacid])AQ[Aib][Orn]FIEYLIEAGPSSGEPPPEEG-NH2 [Example 484]	0.201 nM	0.0152 nM	3.99 nM	16 nM	204 nM	1.59 nM									
H-Y[Aib]QGT[αMePhe(2-F)]TSD[4Pal][αMeS]I[αMeL]LD[Orn]K([AEEA-γGlu-C18 diacid])AQ[Aib][Orn]FIEYLIEGGPSSGEPPPEEG-NH2 [Example 476]	0.164 nM	0.0131 nM	1.34 nM	14.6 nM	90.2 nM	1.29 nM									
H-Y[Aib]QGT[αMePhe(2-F)]TSD[4Pal][αMeS]I[αMeL]LD[Orn]K([AEEA-γGlu-C18 diacid])AQ[Aib][Orn]FI[dE]YLIEGGPSSGEPPPSGTE-NH2 [Example 501]	0.401 nM	0.0373 nM	4.54 nM	38 nM	455 nM	2.32 nM									
H-Y[Aib]QGT[αMePhe(2-F)]TSD[4Pal][αMeS]I[αMeL]LD[Orn]K([AEEA-γGlu-C18 diacid])AQ[Aib][Orn]FI[dE]YLIEGGPSSGEPPPSGTEE-NH2 [Example 533]	0.334 nM	0.0388 nM	5.02 nM	30 nM	453 nM	3.23 nM									
